Like-named read-outs stand apart in the source and are kept apart here.
Assays:
NLuc::LmxCLK1 = NLuc::LmxCLK1 (Leishmania mexicana, UniProt E9AMP2); test: cell-based; assay type: cell-based; settings: for Target occupancy Run 1 / Target occupancy Run 2 / Target occupancy Average: 10 µM compound, tracer SV366, promastigotes; for Target occupancy Average: mean of two experiments
Protocol: All compounds were tested at a fixed concentration of 10 µM to enable direct comparison of their target occupancy in live cells.
Serially diluted probes (5 µL) were added to 85 µL of cells in culture media or 85 µL of purified protein. Final well volumes were adjusted to 100 µL with sterile Opti-MEM™ I Reduced Serum Medium (Thermo-Scientific) – for wells containing cells; or Kinase Buffer - for wells containing purified protein. For tracer displacement assays, samples were prepared as above, but final volume was brought to 100 µL by addition of vehicle or serially-diluted test compounds. Final DMSO concentration in these assays was 1%. […] Light emissions at 460+10 nm (BRET donor) and at 610+20 nm (BRET acceptor) were sequentially recorded (integration time = 0.5 s, gain = 3600) using a luminometer (BMG LABTECH Clariostar or Biotek Synergy HT). BRET values are reported in milli-BRET (mBRET) units (mBU), obtained by dividing the acceptor luminescence by the donor luminescence and multiplying the result by a factor of 1,000. BRET values were converted to blank-corrected probe occupancies (%) according to equation [1]: (1) Probeoccupancy(%)=X−Z/Y−Z×100 where X = mBRET value in the presence of the test compound and the probe, Y = mBRET value in the presence of probe only, and Z = mBRET value in the absence of probe and test compound. […]

LmxCLK1 = biological target: T1, LmxCLK1 (Leishmania mexicana, UniProt E9AMP2); test: biochemical; assay type: binding; settings: DSF, 10 µM compound
T1 sequence (E9AMP2 1-422): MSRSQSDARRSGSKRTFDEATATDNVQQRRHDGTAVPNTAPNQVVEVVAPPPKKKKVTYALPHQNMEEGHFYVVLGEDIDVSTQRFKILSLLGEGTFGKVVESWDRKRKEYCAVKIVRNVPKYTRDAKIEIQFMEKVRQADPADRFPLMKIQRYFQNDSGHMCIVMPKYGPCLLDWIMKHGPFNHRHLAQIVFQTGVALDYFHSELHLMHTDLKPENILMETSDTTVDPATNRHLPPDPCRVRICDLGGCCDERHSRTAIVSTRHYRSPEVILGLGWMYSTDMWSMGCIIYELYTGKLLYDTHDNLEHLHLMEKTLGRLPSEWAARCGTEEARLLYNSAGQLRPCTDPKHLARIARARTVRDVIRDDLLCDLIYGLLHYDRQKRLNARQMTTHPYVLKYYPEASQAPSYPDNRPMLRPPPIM

[1] = read-out: Target occupancy Average
[2] = read-out: Target occupancy Run 1
[3] = read-out: Target occupancy Run 2
[4] = 2 µM LmxCLK1, Run 1, read-out: ΔTm Run 1
[5] = 2 µM LmxCLK1, Run 2, read-out: ΔTm Run 2
[6] = 2 µM LmxCLK1, mean of two runs, read-out: ΔTm Average

Compound | Target occupancy Run 1 (NLuc::LmxCLK1) [%] | Target occupancy Run 2 (NLuc::LmxCLK1) [%] | Target occupancy Average (NLuc::LmxCLK1) [%] | ΔTm Run 1 (LmxCLK1; 2 µM LmxCLK1, Run 1) [°C] | ΔTm Run 2 (LmxCLK1; 2 µM LmxCLK1, Run 2) [°C] | ΔTm Average (LmxCLK1; 2 µM LmxCLK1, mean of two runs) [°C] | receptor occupancy at 10 µM (NLuc::LmxCLK1; [1]) [%] | receptor occupancy at 10 µM (NLuc::LmxCLK1; [2]) [%] | receptor occupancy at 10 µM (NLuc::LmxCLK1; [3]) [%] | ΔTm at 10 µM (LmxCLK1; [4]) [°C] | ΔTm at 10 µM (LmxCLK1; [5]) [°C] | ΔTm at 10 µM (LmxCLK1; [6]) [°C]
N#C/C(=C/c1ccc(O)c(O)c1)C(=O)NCc1ccccc1 [AG-490 (Tyrphostin B42)] | -25.0 | -10.6 | -17.8 | 0.1 | 0.2 | 0.1 |  |  |  |  |  | 
C=CC(=O)Nc1ccc2ncnc(Nc3ccc(OCc4cccc(F)c4)c(Cl)c3)c2c1 [AST-1306] |  |  |  |  |  |  | -9.2 | -7.7 | -10.7 | -0.1 | -0.4 | -0.2
O=C(NC1CCNCC1)c1[nH]ncc1NC(=O)c1c(Cl)cccc1Cl [AT7519] |  |  |  |  |  |  | -13.8 | 6.4 | -34 | 0.4 | 0.5 | 0.4
N[C@@H]1CCCN(c2c(/C=C3\SC(=O)NC3=O)cccc2-c2ccccc2)C1 [AZD1208] | 5.0 | -7.9 | -1.4 | 0.1 | -0.4 | -0.1 |  |  |  |  |  | 
CNC(=O)c1cccc(-c2ccc3c(N4CCOC[C@@H]4C)nc(N4CCOC[C@@H]4C)nc3n2)c1 [AZD2014] |  |  |  |  |  |  | -1.4 | 8.9 | -11.6 | 0.3 | -0.3 | 0
COc1cc(N2CCC(N)CC2)ccc1Nc1ncc(Cl)c(-c2c[nH]c3ccccc23)n1 [AZD3463] | 8.0 | -12.9 | -2.4 | 0.6 | 0.3 | 0.4 |  |  |  |  |  | 
N#CC1(c2ccc(NC(=O)c3cccnc3NCc3ccncc3)cc2)CCCC1 [Apatinib] |  |  |  |  |  |  | -8.5 | -9.2 | -7.8 | -0.2 | -0.4 | -0.3
C[C@H]1[C@H](C)CC[C@]2(C(=O)O)CC[C@]3(C)C(=CC[C@@H]4[C@@]5(C)C[C@@H](O)[C@H](O)[C@@](C)(CO)[C@@H]5CC[C@]43C)[C@H]12 [Asiatic Acid] |  |  |  |  |  |  | -4.4 | 8.6 | -17.4 | 0.2 | 0.1 | 0.2
Cc1ccc(S(=O)(=O)/C=C/C#N)cc1 [BAY 11-7082] | -17.1 | -14.7 | -15.9 | -0.4 | -0.2 | -0.3 |  |  |  |  |  | 
CN(C)Cc1cccc(N/C(=C2\C(=O)Nc3cc(C(N)=O)ccc32)c2ccccc2)c1 [BIX 02188] |  |  |  |  |  |  | -6.5 | 4.1 | -17 | 0.1 | -0.2 | 0
Cc1ccc2nc(NCCN)c3ncc(C)n3c2c1 [BMS-345541] |  |  |  |  |  |  | -1.1 | 7.2 | -9.4 | -0.1 | -0.3 | -0.2
COc1cc(Nc2c(C#N)cnc3cc(OCCCN4CCN(C)CC4)c(OC)cc23)c(Cl)cc1Cl [Bosutinib (SKI-606)] | 7.7 | -36.0 | -14.2 | 0.5 | 0.6 | 0.5 |  |  |  |  |  | 
O=C(/C=C/c1ccc(O)c(O)c1)c1ccc(O)cc1O [Butein] |  |  |  |  |  |  | -10.8 | 3.3 | -25 | 0 | 0.4 | 0.2
CC[C@H](Nc1ncnc2[nH]cnc12)c1nc2cccc(F)c2c(=O)n1-c1ccccc1 [CAL-101 (Idelalisib)] | 0.2 | 0.1 | 0.1 | -0.2 | -0.2 | -0.2 |  |  |  |  |  | 
O=C1NC(=O)C(=Cc2ccc(-c3ccc(F)cc3)o2)S1 [CAY10505] | -12.3 | 10.0 | -1.2 | 0.1 | -0.1 | 0.0 |  |  |  |  |  | 
COc1cc2ncnc(Oc3cccc(NC(=O)Nc4cc(C(C)(C)C(F)(F)F)on4)c3)c2cc1OC [CEP-32496] |  |  |  |  |  |  | -3.7 | -2.2 | -5.2 | -0.4 | -0.2 | -0.3
C=CC(=O)Nc1cccc(Nc2nc(Nc3ccc(Oc4ccnc(C(=O)NC)c4)cc3)ncc2F)c1 [CNX-774] | -4.4 | -9.3 | -6.8 | -0.3 | 0.0 | -0.2 |  |  |  |  |  | 
CN1CCCN(C(=O)c2cccc(-c3ccc(/C=C4/C(=O)Nc5ccc(Cl)cc54)o3)c2)CC1.Cl [CX-6258 HCl] | -0.5 | -26.8 | -13.6 | 0.1 | -0.4 | -0.1 |  |  |  |  |  | 
CC(C)(C)c1nc(-c2cccc(NS(=O)(=O)c3c(F)cccc3F)c2F)c(-c2ccnc(N)n2)s1 [Dabrafenib (GSK2118436)] | 0.7 | -7.9 | -3.6 | -0.2 | 0.0 | -0.1 |  |  |  |  |  | 
COc1cc2ncnc(Nc3ccc(F)c(Cl)c3)c2cc1NC(=O)/C=C/CN1CCCCC1 [Dacomitinib (PF299804)] | 1.4 | -14.2 | -6.4 | -0.4 | -0.5 | -0.4 |  |  |  |  |  | 
Cc1nc(Nc2ncc(C(=O)Nc3c(C)cccc3Cl)s2)cc(N2CCN(CCO)CC2)n1 [Dasatinib] |  |  |  |  |  |  | -14.6 | 1.5 | -30.7 | -0.1 | -0.2 | -0.1
